# Experiments:
# Type in all cases: in vivo, human
# [1] = system: TG, LDL-C, non-HDL-C, VLDL-C, Lp-PLA2, Apo B, TC, HDL-C, VLDL-TG, hs-CRP, oxLDL, RLP-C; assay: Lipid and inflammatory parameters in statin-treated patients with diabetes mellitus-2, all endpoints (Example 2); conditions: for Each evaluated endpoint (TG, LDL-C, non-HDL-C, VLDL-C, Lp-PLA2, Apo B, TC, HDL-C, VLDL-TG, hs-CRP, oxLDL, RLP-C), adjusted for placebo: twelve weeks, diabetes mellitus-2, FIG. 1
# Description: (§1) Parameters (a)-(y) can be measured in accordance with any clinically acceptable methodology. For example, triglycerides, total cholesterol, HDL-C and fasting blood sugar can be sample from serum and analyzed using standard photometry techniques. VLDL-TG, LDL-C and VLDL-C can be calculated or determined using serum lipoprotein fractionation by preparative ultracentrifugation and subsequent quantitative analysis by refractometry or by analytic ultracentrifugal methodology. Apo A1, Apo B and hsCRP can be determined from serum using standard nephelometry techniques. Lipoprotein (a) can be determined from serum using standard turbidimetric immunoassay techniques. LDL particle number and particle size can be determined using nuclear magnetic resonance (NMR) spectrometry. Remnants lipoproteins and LDL-phospholipase A2 can be determined from EDTA plasma or serum and serum, respectively, using enzymatic immunoseparation techniques. Oxidized LDL, intercellular adhesion molecule-1 and interleukin-2 levels can be determined from serum using standard enzyme immunoassay techniques. These techniques are described in detail in standard textbooks, for example Tietz Fundamentals of Clinical Chemistry, 6th Ed. (Burtis, Ashwood and Borter Eds.), WB Saunders Company.
# The effect of >96% E-EPA on lipid and inflammatory parameters was evaluated in patients with fasting triglyceride levels ≧150 mg/dl and <499 mg/dl on concomitant statin therapy. Patients with diabetes mellitus-2 were randomized and treated with either 2 g/day >96% E-EPA, 4 g/day >96%, or placebo for twelve weeks. At the end of the treatment period, several diabetes efficacy endpoints were evaluated including, TG, LDL-C, non-HDL-C, VLDL-C, Lp-PLA2, Apo B, TC, HDL-C, VLDL-TG, hs-CRP, oxLDL, and RLP-C.
# ICAM-1 = assay: ANCHOR study (fasting TG ≧200 and <500 mg/dl despite statin), ICAM-1; conditions: ANCHOR ITT, week 12
# Description: as §1
# A multi-center, placebo-controlled, randomized, double-blind, 12-week study was performed to evaluate the efficacy and safety of >96% E-EPA in patients with fasting triglyceride levels ≧200 mg/dl and <500 mg/dl despite statin therapy (the mean of two qualifying entry values needed to be ≧185 mg/dl and at least one of the values needs to be ≧200 mg/dl). The primary objective of the study was to determine the efficacy of >96% E-EPA 2 g daily and 4 g daily, compared to placebo, in lowering fasting TG levels in patients with high risk for cardiovascular disease and with fasting TG levels ≧200 mg/dL and <500 mg/dL, despite treatment to LDL-C goal on statin therapy. […]
# Ox-LDL = assay: ANCHOR study, oxidized LDL; conditions: ANCHOR ITT, week 12
# Description: as §1, with “Company. […]” for “Company.”
# IL-6 = assay: ANCHOR study, IL-6; conditions: ANCHOR ITT, week 12
# Experimental: A multi-center, placebo-controlled, randomized, double-blind, 12-week study was performed to evaluate the efficacy and safety of >96% E-EPA in patients with fasting triglyceride levels ≧200 mg/dl and <500 mg/dl despite statin therapy (the mean of two qualifying entry values needed to be ≧185 mg/dl and at least one of the values needs to be ≧200 mg/dl). The primary objective of the study was to determine the efficacy of >96% E-EPA 2 g daily and 4 g daily, compared to placebo, in lowering fasting TG levels in patients with high risk for cardiovascular disease and with fasting TG levels ≧200 mg/dL and <500 mg/dL, despite treatment to LDL-C goal on statin therapy.
# The population for this study was men and women >18 years of age with a body mass index ≦45 kg/m^2 with fasting TG levels greater than or equal to 200 mg/dl and less than 500 mg/dl and on a stable does of statin therapy (with or without ezetimibe). The statin must have been atorvostatin, rosuvastatin or simvastatin. The dose of statin must have been stable for ≧4 weeks prior to the LDL-C/TG baseline qualifying measurement for randomization. The statin dose was optimal such that the patients are at their LDL-C goal at the LDL-C/TG baseline qualifying measurements. The same statin at the same dose was continued until the study ended.
# Approximately 648 patients were randomized at approximately 80 centers in the U.S. The study was a 18- to 20-week, Phase 3, multi-center study consisting of 2 study periods: (1) A 6- to 8-week screening period that included a diet and lifestyle stabilization, a non-statin lipid-altering treatment washout, and an LDL-C and TG qualifying period and (2) A 12-week, double-blind, randomized, placebo-controlled treatment period.
# After confirmation of qualifying fasting LDL-C and TG values, eligible patients entered a 12-week, randomized, double-blind treatment period. At Visit 4 (Week 0), patients were randomly assigned to 1 of the following treatment groups: • >96% E-EPA 2 g daily, • >96% E-EPA 4 g daily, or • Placebo.
# Approximately 216 patients per treatment group were randomized in this study. Stratification was by type of statin (atorvastatin, rosuvastatin or simvastatin), the presence of diabetes, and gender. The lower-efficacy statin regimen included administration of 5-10 mg of simvastatin per day; the medium-efficacy statin regimens included administration of 5-10 mg rosuvastatin per day, 10-20 mg of atorvastatin per day, 20-40 mg of simvastatin per day, or 10-20 mg of simvastatin and 5-10 mg of ezetimibe per day; and the higher-efficacy statin regimens included administration of 20-40 mg of rosuvastatin per day, 40-80 mg of atorvastatin per day, 80 mg of simvastatin per day, or 40-80 mg of simvastatin and 5-10 mg of ezetimibe per day. […]
smiles,measurement,setting,value
"CC/C=C\C/C=C\C/C=C\C/C=C\C/C=C\CCCC(=O)OCC [AMR101, all-cis eicosa-5,8,11,14,17-pentaenoic acid ethyl ester]","Each evaluated endpoint (TG, LDL-C, non-HDL-C, VLDL-C, Lp-PLA2, Apo B, TC, HDL-C, VLDL-TG, hs-CRP, oxLDL, RLP-C), adjusted for placebo",[1]; 2 g/day,showed a decrease
same,"Each evaluated endpoint (TG, LDL-C, non-HDL-C, VLDL-C, Lp-PLA2, Apo B, TC, HDL-C, VLDL-TG, hs-CRP, oxLDL, RLP-C), adjusted for placebo",[1]; 4 g/day,showed a decrease
same,"Placebo-adjusted effects on non-HDL-C, VLDL-C, Apo B, TC, VLDL-TG, hsCRP and oxLDL, less-controlled versus well-controlled subjects","[1]; 4 g/day, Table 7 and FIG. 3",more pronounced effects were observed in less-controlled diabetics
same,ICAM-1 change from baseline (median),ICAM-1; 2 g/day,0.5%
same,ICAM-1 change from baseline (median),ICAM-1; 4 g/day,0.8%
same,ICAM-1 end-of-treatment value (median),ICAM-1; 4 g/day,270.0 ng/mL
same,Ox-LDL change from baseline (median),Ox-LDL; 2 g/day,2.6%
same,Ox-LDL change from baseline (median),Ox-LDL; 4 g/day,−4.8%
same,IL-6 change from baseline (median),IL-6; 2 g/day,6.9%
same,IL-6 end-of-treatment value (median),IL-6; 2 g/day,2.7 pg/mL
same,IL-6 change from baseline (median),IL-6; 4 g/day,3.1%
same,IL-6 end-of-treatment value (median),IL-6; 4 g/day,2.6 pg/mL

# From patent publication US9827219B2, “Compositions and methods for lowering levels of high-sensitivity C-reactive protein (HS-CRP) in a subject” (priority 2012, dated 2017)
